Several values for one entry are separate records, joined by “and”; a condition that tells them apart may be missing. Identical values can stand only once.
Assays:
[1] = tested on: preclinical models of T-ALL; details: in vitro and in vivo; references 25, 26; cited from earlier work
[2] = tested on: Calreticulin cells in tumor-infiltrating lymphocytes; assay: Example 2: flow cytometry, percentage of Calreticulin cells in TILs; format: in vivo, Mus musculus; details: individual mice and group Mean; for CD45^− live cells (CD45^−ViaKrome405^weak) Cell count / Calreticulin cells (CD45^− Calreticulin^+) Cell count / Total CD45^− cells (CD45^−) Cell count: Cell count = Total cell × Total % × 10; for CD45^− live cells (CD45^−ViaKrome405^weak) CTL Gated % / CD45^− live cells (CD45^−ViaKrome405^weak) Total % / Calreticulin cells (CD45^− Calreticulin^+) CTL Gated % / Calreticulin cells (CD45^− Calreticulin^+) Total % / Total CD45^− cells (CD45^−) CD45^+ Gated % / Total CD45^− cells (CD45^−) Total %: TILs from tumor
Experimental: (§1) Mice were sacrificed by CO2 euthanasia at the end of the study duration, and the connective tissue around tumor was resected. The tumor samples were then weighed and cut equally into three sections if the tumor weight over 400 mg. The tumor tissue was prepared for the isolation of tumor-infiltrating lymphocytes (TILs). The rest of one section was fixed in 10% formaldehyde and embedded in paraffin; the other was stored at a temperature below −70° C.
(§2) The tumor samples were dissected into smaller fragments using scalpels and then digested with a cocktail of collagenase, DNase I, and Hyaluronidase (Collagenase #C5138, DNase I #D5025, Hyaluronidase #H6254, SigmaAldrich) for at least 2 hours.
(§3) Cells were stained with the fluorescently conjugated surface antibodies and incubated for 30 minutes at 4° C., and then resuspended in staining buffer for flow cytometric analysis. Flow cytometry was done using a Navios EX Flow Cytometer (Beckman Coulter). Data were analyzed using the Kaluza Analysis Software (Beckman Coulter).

[3] = tested on: NK cells in tumor-infiltrating lymphocytes; assay: Example 2: flow cytometry, percentage of NK cells in TILs; format: in vivo, Mus musculus; details: G2: OBI-3424 (0.3 mg/kg); individual animals and Mean; 0.3 mg/kg
Experimental: as §1, §2, §3

[4] = G2: OBI-3424 0.3 mg/kg, 0.3 mg/kg
[5] = G2: OBI-3424 0.3 mg/kg, 0.3 mg/kg, group mean
[6] = G3: OBI-3424 1 mg/kg, 1 mg/kg, group mean

For `C[C@H](OP(=O)(N1CC1)N1CC1)c1ccc([N+](=O)[O-])c(Oc2cccc(C(=O)N(C)C)c2)c1` [OBI-3424, (S)-1-(3-(3-N,N-dimethylaminocarbonyl)phenoxyl-4-mtrophenyl)-1-ethyl-N,N′-bis(ethylene)phosphoramidate], the “efficacy against preclinical models of T-ALL (in words)” value [1] is given as “potent efficacy”, the “CD45^− live cells (CD45^−ViaKrome405^weak) Cell count” value [2, 4] is given as 39.37 ×10^5 and 25.28 ×10^5 and 83.81 ×10^5 and 1.35 ×10^5 and 29.90 ×10^5 and 5.87 ×10^5 and the “Calreticulin cells (CD45^− Calreticulin^+) Cell count” value [2, 4] is given as 5.54 ×10^5 and 1.27 ×10^5 and 10.26 ×10^5 and 0.06 ×10^5 and 1.11 ×10^5 and 0.19 ×10^5. For the same compound, the “Total CD45^− cells (CD45^−) Cell count” value [2, 4] was 70.58 ×10^5 and 45.89 ×10^5 and 130.41 ×10^5 and 2.18 ×10^5 and 65.25 ×10^5 and 10.35 ×10^5, the “CD45^− live cells (CD45^−ViaKrome405^weak) Cell count” value [2, 5] was 30.93 ×10^5 and the “Calreticulin cells (CD45^− Calreticulin^+) Cell count” value [2, 5] was 3.07 ×10^5. The “Total CD45^− cells (CD45^−) Cell count” value [2, 5] was 54.11 ×10^5, the “CD45^− live cells (CD45^−ViaKrome405^weak) CTL Gated %” value [2, 4] was 55.78% and 55.07% and 64.29% and 61.79% and 45.83% and 56.69% and the “CD45^− live cells (CD45^−ViaKrome405^weak) Total %” value [2, 4] was 20.24% and 12.36% and 15.52% and 6.30% and 12.13% and 8.10%. For the same compound, the “Calreticulin cells (CD45^− Calreticulin^+) CTL Gated %” value [2, 4] was 14.09% and 5.02% and 12.21% and 4.51% and 3.69% and 3.21%, the “Calreticulin cells (CD45^− Calreticulin^+) Total %” value [2, 4] was 2.85% and 0.62% and 1.90% and 0.28% and 0.45% and 0.26% and the “Total CD45^− cells (CD45^−) CD45^+ Gated %” value [2, 4] was 50.59% and 29.66% and 28.87% and 12.41% and 31.01% and 21.40%. For the same compound, the “Total CD45^− cells (CD45^−) Total %” value [2, 4] was 36.29% and 22.44% and 24.15% and 10.20% and 26.47% and 14.28%, the “CD45^− live cells (CD45^−ViaKrome405^weak) CTL Gated %” value [2, 5] was 56.58% and the “CD45^− live cells (CD45^−ViaKrome405^weak) Total %” value [2, 5] was 12.44%. The “Calreticulin cells (CD45^− Calreticulin^+) CTL Gated %” value [2, 5] was 7.12%, the “Calreticulin cells (CD45^− Calreticulin^+) Total %” value [2, 5] was 1.06% and the “Total CD45^− cells (CD45^−) CD45^+ Gated %” value [2, 5] was 28.99%. The “Total CD45^− cells (CD45^−) Total %” value [2, 5] was 22.31%, the “CD45^− live cells (CD45^−ViaKrome405^weak) Cell count” value ([2]; G3: OBI-3424 1 mg/kg, 1 mg/kg) was 1.72 ×10^5 and 9.67 ×10^5 and 7.88 ×10^5 and 9.07 ×10^5 and 5.22 ×10^5 and 6.72 ×10^5 and the “Calreticulin cells (CD45^− Calreticulin^+) Cell count” value ([2]; G3: OBI-3424 1 mg/kg, 1 mg/kg) was 0.05 ×10^5 and 0.25 ×10^5 (2×) and 0.88 ×10^5 and 0.19 ×10^5 and 0.12 ×10^5. The “Total CD45^− cells (CD45^−) Cell count” value ([2]; G3: OBI-3424 1 mg/kg, 1 mg/kg) was 2.45 ×10^5 and 15.22 ×10^5 and 11.73 ×10^5 and 11.65 ×10^5 and 8.38 ×10^5 and 8.94 ×10^5, the “CD45^− live cells (CD45^−ViaKrome405^weak) Cell count” value [2, 6] was 6.71 ×10^5 and the “Calreticulin cells (CD45^− Calreticulin^+) Cell count” value [2, 6] was 0.29 ×10^5. The “Total CD45^− cells (CD45^−) Cell count” value [2, 6] was 9.73 ×10^5, the “CD45^− live cells (CD45^−ViaKrome405^weak) CTL Gated %” value ([2]; G3: OBI-3424 1 mg/kg, 1 mg/kg) was 70.28% and 63.52% and 67.13% and 77.84% and 62.30% and 75.12% and the “CD45^− live cells (CD45^−ViaKrome405^weak) Total %” value ([2]; G3: OBI-3424 1 mg/kg, 1 mg/kg) was 5.94% and 7.66% and 11.16% and 9.18% and 7.02% and 8.30%. The “Calreticulin cells (CD45^− Calreticulin^+) CTL Gated %” value ([2]; G3: OBI-3424 1 mg/kg, 1 mg/kg) was 2.90% and 2.61% and 11.18% and 2.75% and 3.65% and 1.83%, the “Calreticulin cells (CD45^− Calreticulin^+) Total %” value ([2]; G3: OBI-3424 1 mg/kg, 1 mg/kg) was 0.17% and 0.20% and 1.25% and 0.25% and 0.26% and 0.15% and the “Total CD45^− cells (CD45^−) CD45^+ Gated %” value ([2]; G3: OBI-3424 1 mg/kg, 1 mg/kg) was 9.67% and 13.99% and 19.95% and 13.15% and 12.84% and 12.22%. The “Total CD45^− cells (CD45^−) Total %” value ([2]; G3: OBI-3424 1 mg/kg, 1 mg/kg) was 8.45% and 12.06% and 16.62% and 11.79% and 11.27% and 11.04%, the “CD45^− live cells (CD45^−ViaKrome405^weak) CTL Gated %” value [2, 6] was 69.37% and the “CD45^− live cells (CD45^−ViaKrome405^weak) Total %” value [2, 6] was 8.21%. The “Calreticulin cells (CD45^− Calreticulin^+) CTL Gated %” value [2, 6] was 4.15%, the “Calreticulin cells (CD45^− Calreticulin^+) Total %” value [2, 6] was 0.38% and the “Total CD45^− cells (CD45^−) CD45^+ Gated %” value [2, 6] was 13.64%. The “Total CD45^− cells (CD45^−) Total %” value [2, 6] was 11.87%, the “NK cells (CD45^+CD56^+) CD45^+ Gated %” value [3] was 6.33% and 8.78% and 8.87% and 10.05% and 2.25% and 6.70% and the “NK cells (CD45^+CD56^+) Cell count” value [3] was 2.30 ×10^5 and 6.67 ×10^5 and 20.68 ×10^5 and 1.46 ×10^5 and 2.47 ×10^5 and 1.84 ×10^5. For the same compound, the “NK cells (CD45^+CD56^+) Total %” value [3] was 1.18% and 3.26% and 3.83% and 6.83% and 1.00% and 2.54%, the “PD-1^+ NK cells (CD45^+CD56^+PD-1^+) Cell count” value [3] was 1.65 ×10^5 and 2.21 ×10^5 and 10.85 ×10^5 and 0.31 ×10^5 and 2.17 ×10^5 and 0.83 ×10^5 and the “PD-1^+ NK cells (CD45^+CD56^+PD-1^+) NK Gated %” value [3] was 71.96% and 33.17% and 52.46% and 21.08% and 87.65% and 44.79%.

Reference: US20240216401A1, “COMBINATION THERAPY BY USING AKR1C3-ACTIVATED COMPOUND WITH IMMUNE CHECKPOINT INHIBITOR” (OBI Pharma, Inc., priority 2021, published 2024)
